Test system: human myometreal fragments
Assay: Inhibition in vitro of the uterine contractility of myometreal fibers from uteruses of women who are not pregnant
Format: cell-based
Details: for Inhibition as % (Mean): spontaneous contractions
Source text: Inhibition In Vitro of the Uterine Contractility of Myometreal Fibers from Uteruses of Women Who are Not Pregnant
The contractile activity of human myometreal fragments was studied in vitro.
After a lag time of approximately two hours, allowing the establishment of spontaneous contractions, the inhibition of the contractions, produced by addition to the medium of 17α-hydroxyprogesterone and of its nitro derivative, 17α-hydroxypregn-4-ene-3,20-dione (4′-nitro-oxymethyl)benzoate, identified in this table under the name 17α-hydroxypregn-4-ene-3,20-dione (4′-nitro-oxymethyl)benzoate (example 4), could be measured.
This experiment makes it possible to evaluate the short-term effect of this compound.

Structure (SMILES)	Inhibition as % (Mean) (concentration 2 × 10^−6 M) [%]	Inhibition as % (Mean) (concentration 2 × 10^−7 M) [%]	Activity on contractions compared with hydroxyprogesterone (on average, action much more constant, less variable)
CC(=O)[C@@]1(O)CC[C@H]2[C@@H]3CCC4=CC(=O)CC[C@]4(C)[C@H]3CC[C@@]21C [17α-hydroxyprogesterone, reference compound]	66	45	
CC(=O)[C@@]1(OC(=O)c2ccc(CO[N+](=O)[O-])cc2)CC[C@H]2[C@@H]3CCC4=CC(=O)CC[C@]4(C)[C@H]3CC[C@@]21C [17α-hydroxypregn-4-ene-3,20-dione (4′-nitrooxymethyl)benzoate]	69	37	the same activity as hydroxyprogesterone
